In ChEMBL document CHEMBL1909294, “Translating clinical findings into knowledge in drug safety evaluation--drug induced liver injury prediction system (DILIps)” (PLoS Comput Biol, 2011):

Tests used:
[1] = tested on: Hepatotoxicity;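 on HepSE cholecystitis: Cholecystitis-related hepatic side effect score drawn from the DILIps (drug-induced liver injury prediction) training data set; call rule not given here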;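 on HepSE cholelithiasis: hepatic side effect score for cholelithiasis, drawn from the DILIps training data for predicting drug-induced liver injury; call rule not given here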;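 on HepSE cirrhosis: cirrhosis hepatic side effect score taken from the DILIps (drug-induced liver injury prediction) training set; call rule not given here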;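 on HepSE elevated liver function tests: hepatic side effect score for raised liver function tests, as recorded in the DILIps training set used for predicting drug-induced liver injury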; on HepSE hepatic failure: call rule not given here; on HepSE liver disease: call rule not given here;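 on HepSE liver function tests abnormal: hepatic side effect score taken from the DILIps (drug-induced liver injury prediction system) training data, here covering abnormal liver function test findings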
[2] = tested on: Hepatotoxicity; remark: listed apart in the source;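 on HepSE cholecystitis: Cholecystitis-related hepatic side effect score drawn from the DILIps (drug-induced liver injury prediction) training data set; call rule not given here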;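 on HepSE cholelithiasis: hepatic side effect score for cholelithiasis, drawn from the DILIps training data for predicting drug-induced liver injury; call rule not given here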;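 on HepSE cirrhosis: cirrhosis hepatic side effect score taken from the DILIps (drug-induced liver injury prediction) training set; call rule not given here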;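 on HepSE elevated liver function tests: hepatic side effect score for raised liver function tests, as recorded in the DILIps training set used for predicting drug-induced liver injury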; on HepSE hepatic failure: call rule not given here; on HepSE liver disease: call rule not given here;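 on HepSE liver function tests abnormal: hepatic side effect score taken from the DILIps (drug-induced liver injury prediction system) training data, here covering abnormal liver function test findings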
[3] = tested on: Hepatotoxicity; remark: listed apart in the source;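 on HepSE cholecystitis: Cholecystitis-related hepatic side effect score drawn from the DILIps (drug-induced liver injury prediction) training data set; call rule not given here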;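 on HepSE cholelithiasis: hepatic side effect score for cholelithiasis, drawn from the DILIps training data for predicting drug-induced liver injury; call rule not given here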;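 on HepSE cirrhosis: cirrhosis hepatic side effect score taken from the DILIps (drug-induced liver injury prediction) training set; call rule not given here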;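 on HepSE elevated liver function tests: hepatic side effect score for raised liver function tests, as recorded in the DILIps training set used for predicting drug-induced liver injury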; on HepSE hepatic failure: call rule not given here; on HepSE liver disease: call rule not given here;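 on HepSE liver function tests abnormal: hepatic side effect score taken from the DILIps (drug-induced liver injury prediction system) training data, here covering abnormal liver function test findings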
[4] = tested on: Hepatotoxicity; remark: listed apart in the source;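 on HepSE cholecystitis: Cholecystitis-related hepatic side effect score drawn from the DILIps (drug-induced liver injury prediction) training data set; call rule not given here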;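 on HepSE cholelithiasis: hepatic side effect score for cholelithiasis, drawn from the DILIps training data for predicting drug-induced liver injury; call rule not given here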;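 on HepSE cirrhosis: cirrhosis hepatic side effect score taken from the DILIps (drug-induced liver injury prediction) training set; call rule not given here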;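 on HepSE elevated liver function tests: hepatic side effect score for raised liver function tests, as recorded in the DILIps training set used for predicting drug-induced liver injury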; on HepSE liver disease: call rule not given here;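 on HepSE liver function tests abnormal: hepatic side effect score taken from the DILIps (drug-induced liver injury prediction system) training data, here covering abnormal liver function test findings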
[5] = tested on: Hepatotoxicity; remark: listed apart in the source; on HepSE liver disease: call rule not given here
[6] = tested on: Hepatotoxicity; remark: listed apart in the source; on HepSE liver disease: call rule not given here
[7] = tested on: Hepatotoxicity; remark: listed apart in the source
[8] = tested on: Hepatotoxicity; remark: listed apart in the source
[9] = tested on: Hepatotoxicity; remark: listed apart in the source
[10] = tested on: Hepatotoxicity; remark: listed apart in the source
[11] = tested on: Hepatotoxicity; remark: listed apart in the source
[12] = tested on: Hepatotoxicity; remark: listed apart in the source
[13] = tested on: Hepatotoxicity; remark: listed apart in the source
[14] = tested on: Hepatotoxicity; remark: listed apart in the source

Structure (SMILES)	HepSE_liver disease [1]	HepSE_elevated liver function tests [2]	HepSE_cholelithiasis [3]	HepSE_cholecystitis [4]	HepSE_liver function tests abnormal [5]	HepSE_cirrhosis [6]	HepSE_hepatic failure [7]	HepSE_bilirubinemia [8]	HepSE_hepatomegaly [9]	HepSE_jaundice [10]	HepSE_Combined Scores [11]	HepSE_hepatitis [12]	HepSE_liver fatty [13]	HepSE_hepatic necrosis [14]	also measured
CC#C[C@]1(O)CC[C@H]2[C@@H]3CCC4=CC(=O)CCC4=C3[C@@H](c3ccc(N(C)C)cc3)C[C@@]21C [MIFEPRISTONE]	0	0	0	0	0	0	0	0	0	0	0	0	0	0	–
CC[C@H]1OC(=O)[C@H](C)[C@@H](O[C@H]2C[C@@](C)(OC)[C@@H](O)[C@H](C)O2)[C@H](C)[C@@H](O[C@@H]2O[C@H](C)C[C@H](N(C)C)[C@H]2O)[C@](C)(OC)C[C@@H](C)C(=O)[C@H](C)[C@@H](O)[C@]1(C)O [CLARITHROMYCIN]	0	0	0	0	0	0	1	0	1	1	4	1	0	0	–
O=C(O)P(=O)(O)O [FOSCARNET]	0	0	0	0	0	0	0	0	0	0	0	0	0	0	–
CCCCS(=O)(=O)N[C@@H](Cc1ccc(OCCCCC2CCNCC2)cc1)C(=O)O [TIROFIBAN]	–	–	–	–	–	–	–	–	–	–	–	–	–	–	HepSE_liver disease ([1]; Liver): 0; HepSE_elevated liver function tests ([2]; Liver): 0; HepSE_cholelithiasis ([3]; Liver): 0; HepSE_cholecystitis ([4]; Liver): 0; HepSE_liver function tests abnormal ([5]; Liver): 0; HepSE_cirrhosis ([6]; Liver): 0; HepSE_hepatic failure ([7]; Liver): 0; HepSE_bilirubinemia ([8]; Liver): 0; HepSE_hepatomegaly ([9]; Liver): 0; HepSE_jaundice ([10]; Liver): 0; HepSE_Combined Scores ([11]; Liver): 0; HepSE_hepatitis ([12]; Liver): 0; HepSE_liver fatty ([13]; Liver): 0; HepSE_hepatic necrosis ([14]; Liver): 0
O=[As][As+](=O)[O-] (stereo not drawn) [ARSENIC TRIOXIDE]	0	0	0	0	0	0	0	0	0	0	0	0	0	0	–
NCC[C@H](O)C(=O)N[C@@H]1C[C@H](N)[C@@H](O[C@H]2O[C@H](CN)[C@@H](O)[C@H](O)[C@H]2O)[C@H](O)[C@H]1O[C@H]1O[C@H](CO)[C@@H](O)[C@H](N)[C@H]1O [AMIKACIN]	0	0	0	0	0	0	0	0	0	0	0	0	0	0	–
Cc1c(-c2ccccc2)oc2c(C(=O)OCCN3CCCCC3)cccc2c1=O [FLAVOXATE]	0	0	0	0	0	0	0	0	0	0	0	0	0	0	–
CO/N=C1\CN(c2nc3c(cc2F)c(=O)c(C(=O)O)cn3C2CC2)CC1CN (stereo not drawn) [GEMIFLOXACIN]	0	0	0	0	0	0	0	1	0	1	3	1	0	0	–
CCCCC[C@H](O)/C=C/[C@@H]1[C@H]2C/C(=C/CCCC(=O)O)O[C@H]2C[C@H]1O [EPOPROSTENOL]	0	0	0	0	0	0	1	0	0	0	1	0	0	0	–
C[C@H](CCC(=O)O)[C@H]1CC[C@H]2[C@@H]3[C@@H](O)C[C@@H]4C[C@H](O)CC[C@]4(C)[C@H]3CC[C@]12C [URSODIOL]	0	0	0	1	0	0	0	0	0	0	1	0	0	0	–
CCOC(=O)[C@H](CCc1ccccc1)N[C@@H](C)C(=O)N1CCC[C@H]1C(=O)O	0	0	0	0	0	0	1	0	0	1	3	1	0	0	–
O=C(NCC1CCCCN1)c1cc(OCC(F)(F)F)ccc1OCC(F)(F)F (stereo not drawn) [FLECAINIDE]	0	0	0	0	0	0	1	0	0	1	2	0	0	0	–
